Data reported in article PMC12522106 (Cancer Research Communications, 2025).
Read-outs that look alike come from different tables or passages of the source.

What was measured:
143B sarcospheres [1] = assay: Sarcosphere size (Incucyte); assay type: cell-based, human; settings: initial 48-hour observation period
[2] = system: patient-derived sarcospheres; assay: Sarcosphere size (Incucyte); assay type: cell-based, human, canine; settings: 48-hour observation period; sensitive and resistant samples
Description: (§1) The number of patient-derived cells required to obtain sarcospheres with 400-μm diameters was determined for each patient and varied from 1,000 to 15,000 cells per sarcosphere.

[3] = system: sarcospheres from canine patients with osteosarcoma; assay: Resazurin metabolic activity of canine patient-derived sarcospheres; assay type: cell-based; settings: for ED50: 48 hours, metabolic activity
Text: (§2) Osteosarcoma tissue was obtained during standard-of-care procedures (biopsies or resections) in human patients treated at Indiana University Health and Riley Children’s Hospital with Institutional Review Board approval (#1501467439). Tissue from canine patients with osteosarcoma was obtained from standard-of-care amputations at the Purdue University College of Veterinary Medicine and the Metropolitan Veterinary Hospital. Osteosarcoma diagnosis was confirmed by review of pathology reports. Demographic and clinical information for human and canine patients is in Table 1. Primary osteosarcoma cells were isolated by collagenase/mechanical dispersion using a modification of a previously described protocol ([35]). […] The tissue was rinsed with cold PBS (Cytiva, cat. #SH30028.02) and minced prior to incubation in 10 mL of culture media containing collagenase type II (750 units/mL with 13–18 units of clostripain/mL, Worthington, cat. #LS004176) for 3 hours at 37°C and 5% CO2. The media and tissue fragments were centrifuged at 200 g for 5 minutes. Pellets with a visible layer of red blood cells were then treated with 5 mL of ACK Lysing Buffer (Gibco, cat. #A10492-01) for 1 minute and then centrifuged at 200 g for 2 minutes. Pellets were resuspended in culture media, pipetted up and down 15 times to disperse tissue fragments, and centrifuged at 200 g for 5 minutes. Finally, any remaining tissue fragments were crushed with a 25-mL pipette and transferred with released cells and culture media to a 100-mm tissue culture dish and incubated at 37°C and 5% CO2. Media were changed every 3 days. When a confluence of ∼80% was reached, the cells were passaged to 150-mm dishes at 5,000 cells/cm^2. Aliquots of the patient-derived osteosarcoma cells were frozen in 10% DMSO (Sigma-Aldrich, D2650), 40% FBS (Cytiva, SH30071.03), and 50% culture media at second passage and stored in liquid nitrogen. The TT2-77 xenoline is a patient cell line that was isolated from a patient-derived xenograft (PDX) that was previously developed and characterized by the Pollok lab ([5]).
as §1
(§3) Round-bottom 96-well plates were coated with 50 μL/well of 0.5% poly 2-hydroxyethyl methacrylate (Polysciences Inc., cat. #09689-25) in 100% ethanol and incubated at 37°C for 3 days before use to obtain a nonadherent surface. […] Highly metastatic osteosarcoma cells cultured in monolayers at 50% to 80% confluence were lifted with Accutase (Innovative Cell Technologies, Inc., cat. #NC9839010), resuspended in media, and diluted to the desired concentration.

[4] = system: LM7 cell–derived lung metastases; set-up: method as in PMID 32599665; settings: administration continued for the entire 21-week observation period; cited from earlier work
[5] = system: subcutaneous xenograft models of osteosarcoma cell lines; settings: cited from earlier work
[6] = system: sarcospheres derived from 143B, MG63.3-GFP, and LM7 cell lines; assay: Sarcosphere resazurin metabolic activity, results stated across all three cell lines; assay type: cell-based, human; settings: with and without MAP; vs belinostat, panobinostat, vorinostat, AR-42, resminostat
Description: Khanna DVM, PhD (NCI). […] Medium was sterile filtered before use.
Highly metastatic osteosarcoma cells cultured in monolayers at 50% to 80% confluence were lifted with Accutase (Innovative Cell Technologies, Inc., cat. #NC9839010), resuspended in media, and diluted to the desired concentration. […] Following cell seeding, plates were centrifuged (1,000 g for 10 minutes at 4°C) and then incubated at 37°C with 5% CO2. […] Then, 100 μL drug treatment or vehicle was added to each well. […] Resazurin reduction on day 2 by vehicle-treated sarcospheres was compared with resazurin reduction on day 0 to calculate sarcosphere growth without drug over 2 days in selected experiments.
Plates were incubated at 37°C in 5% CO2 for 2 or 6 hours.
Sarcospheres were matured for 24 hours and then treated for 48 hours with media containing 10 µmol/L of each drug and 0.1% DMSO. […] Growth inhibition represents a more clinically translatable measure for screening studies in which a value of 0% represents stable disease since the start of treatment, values of 0% to 100% represent progression in which 100% is the untreated control, and values less than 0% represent regression in which −100% represents blank wells without sarcospheres.

[7] = system: sarcospheres from human patients with osteosarcoma; assay: Resazurin metabolic activity of human patient-derived sarcospheres; assay type: cell-based; settings: for ED50: 48 hours, metabolic activity
Text: as §2, §1, §3

[8] = system: murine K7M2 osteosarcoma cells; set-up: method as in PMID 32599665; settings: compared with LM7 model; cited from earlier work
[9] = humans, cited from earlier work
LM7 sarcospheres [10] = assay: Transient romidepsin treatment, recovery of metabolic activity; assay type: cell-based, human; settings: 10–100 nmol/L; followed to day 14
Description: (§4) Sarcosphere losses were minimized by removing the media stepwise (25 μL/step, 10 μL/second) and by centering the sarcospheres in the middle of each well by centrifugation (1,000 g for 6 minutes) before each media exchange cycle. After each assay of metabolic activity, resazurin was removed by three cycles of media exchange and the media were changed on days 10 and 12 by one cycle.

143B sarcospheres [11] = assay: as above; assay type: cell-based, human; settings: followed to day 14
Description: as §4

LM7 sarcospheres [12] = assay: Sarcosphere size (Incucyte); assay type: cell-based, human; settings: 48-hour period

Question: Which “effect on sarcosphere size” value (143B sarcospheres [1]) does the source give for `C/C=C1\NC(=O)[C@H]2CSSCC/C=C/[C@H](CC(=O)N[C@H](C(C)C)C(=O)N2)OC(=O)[C@H](C(C)C)NC1=O` [romidepsin] here?
Answer: The value was “inhibited the increase in size”.

Question: What about the “effect on sarcosphere size” value [2] of the same compound?
Answer: The value was “did not change in size”.

Question: What about the “share of canine patient samples whose sarcospheres responded” value ([3]; ED50s <70 nmol/L) of the same compound?
Answer: Its value is 50%.

Question: What about the ED50 ([3]; canine patient sample MVHcOS001 (romidepsin resistant)) of the same compound?
Answer: Its ED50 is >1,000 nmol/L.

Question: And the ED50 ([3]; canine patient sample MVHcOS002 (romidepsin resistant))?
Answer: Its ED50 is >1,000 nmol/L.

Question: And the ED50 ([3]; canine patient sample MVHcOS003 (romidepsin sensitive))?
Answer: Its ED50 is 22 nmol/L.

Question: What about the ED50 ([3]; canine patient sample MVHcOS004 (romidepsin sensitive)) of the same compound?
Answer: The ED50 was 6 nmol/L.

Question: What about the ED50 ([3]; canine patient sample MVHcOS005 (romidepsin resistant)) of the same compound?
Answer: Its ED50 is >1,000 nmol/L.

Question: What about the ED50 ([3]; canine patient sample MVHcOS006 (romidepsin resistant)) of the same compound?
Answer: The ED50 was >1,000 nmol/L.

Question: And the ED50 ([3]; canine patient sample PUcOS001 (romidepsin sensitive))?
Answer: The ED50 was 65 nmol/L.

Question: What about the ED50 ([3]; canine patient sample PUcOS002 (romidepsin sensitive)) of the same compound?
Answer: The ED50 was 46 nmol/L.

Question: What about the ED50 ([3]; canine patient sample PUcOS003 (romidepsin resistant)) of the same compound?
Answer: The ED50 was >1,000 nmol/L.

Question: And the ED50 ([3]; canine patient sample PUcOS004 (romidepsin sensitive))?
Answer: Its ED50 is 57 nmol/L.

Question: And the “growth of lung metastases” value [4]?
Answer: Its value is “prevented”.

Question: What about the tumor response ([5]; mice followed for 1 week after discontinuation) of the same compound?
Answer: The tumor response was “tumors regressed”.

Question: What about the response after discontinuation ([5]; mice followed for 6 weeks after discontinuation) of the same compound?
Answer: The response after discontinuation was “did not induce a sustained response”.

Question: What about the “growth of well-established subcutaneous xenografts” value ([5]; small number of mice) of the same compound?
Answer: The value was “inhibited growth”.

Question: What about the “rank of ED50s among tested HDIs” value [6] of the same compound?
Answer: The value was “lowest ED50s”.

Question: What about the “share of human patient samples whose sarcospheres responded” value ([7]; ED50s <70 nmol/L) of the same compound?
Answer: The value was about 30%.

Question: And the ED50 ([7]; TT2-77 Xenoline (romidepsin sensitive))?
Answer: The ED50 was 10 nmol/L.

Question: What about the “ED50 of the notably more sensitive patient” value ([7]; one patient) of the same compound?
Answer: Its value is 1 nM.

Question: What about the ED50 ([7]; patient sample IUhOS002LR (romidepsin resistant)) of the same compound?
Answer: The ED50 was >1,000 nmol/L.

Question: And the ED50 ([7]; patient sample IUhOS005B (romidepsin resistant))?
Answer: Its ED50 is >1,000 nmol/L.

Question: What about the ED50 ([7]; patient sample IUhOS006B (romidepsin sensitive)) of the same compound?
Answer: The ED50 was 6 nmol/L.

Question: And the ED50 ([7]; patient sample IUhOS013B (romidepsin resistant))?
Answer: The ED50 was >1,000 nmol/L.

Question: And the ED50 ([7]; patient sample IUhOS018B (romidepsin sensitive))?
Answer: Its ED50 is 1 nmol/L.

Question: And the ED50 ([7]; patient sample IUhOS020LR (romidepsin sensitive))?
Answer: Its ED50 is 63 nmol/L.

Question: And the ED50 ([7]; patient sample IUhOS021B (romidepsin resistant))?
Answer: The ED50 was >1,000 nmol/L.

Question: What about the ED50 ([7]; patient sample IUhOS027P (romidepsin resistant)) of the same compound?
Answer: The ED50 was >1,000 nmol/L.

Question: And the ED50 ([7]; patient sample IUhOS029LR (romidepsin resistant))?
Answer: Its ED50 is >1,000 nmol/L.

Question: What about the ED50 ([7]; patient sample IUhOS0410B (romidepsin resistant)) of the same compound?
Answer: Its ED50 is >1,000 nmol/L.

Question: And the ED50 ([7]; patient sample IUhOS0410P (romidepsin resistant))?
Answer: The ED50 was >1,000 nmol/L.

Question: And the ED50 ([7]; patient sample IUhOS1516B (romidepsin sensitive))?
Answer: Its ED50 is 10 nmol/L.

Question: What about the ED50 ([7]; patient sample IUhOS1516P (romidepsin resistant)) of the same compound?
Answer: The ED50 was >1,000 nmol/L.

Question: What about the ED50 ([7]; patient sample IUhOS1925B (romidepsin resistant)) of the same compound?
Answer: Its ED50 is >1,000 nmol/L.

Question: And the ED50 ([7]; patient sample IUhOS1925P (romidepsin resistant))?
Answer: The ED50 was >1,000 nmol/L.

Question: And the ED50 ([7]; patient sample IUhOS2226B (romidepsin resistant))?
Answer: The ED50 was >1,000 nmol/L.

Question: And the ED50 ([7]; patient sample IUhOS2226P (romidepsin resistant))?
Answer: The ED50 was >1,000 nmol/L.

Question: What about the “effect on lung metastases” value [8] of the same compound?
Answer: Its value is “less effect”.

Question: What about the Cmax [9] of the same compound?
Answer: Its Cmax is about 700 nM.

Question: And the Cmax ([9]; listed as Romidepsin)?
Answer: The Cmax was 700 nM.

Question: What about the “recovery of metabolic activity after a 24-hour exposure” value (LM7 sarcospheres [10]) of the same compound?
Answer: Its value is “sustained effect for 14 days”.

Question: And the “recovery of metabolic activity after a 24-hour exposure” value (143B sarcospheres [11])?
Answer: Its value is “rapidly recovered”.

Question: And the “effect on sarcosphere size” value (LM7 sarcospheres [12])?
Answer: Its value is “did not alter size”.
